The experiment concerns the target Protein-arginine deiminase type-4 (Homo sapiens, UniProt Q9UM07). As to the kind of experiment: IC50 against protein arginine deiminase 4 – biochemical, fluorescence readout, dose response (AID 492970).

Chain of Protein-arginine deiminase type-4 (Q9UM07 whole entry): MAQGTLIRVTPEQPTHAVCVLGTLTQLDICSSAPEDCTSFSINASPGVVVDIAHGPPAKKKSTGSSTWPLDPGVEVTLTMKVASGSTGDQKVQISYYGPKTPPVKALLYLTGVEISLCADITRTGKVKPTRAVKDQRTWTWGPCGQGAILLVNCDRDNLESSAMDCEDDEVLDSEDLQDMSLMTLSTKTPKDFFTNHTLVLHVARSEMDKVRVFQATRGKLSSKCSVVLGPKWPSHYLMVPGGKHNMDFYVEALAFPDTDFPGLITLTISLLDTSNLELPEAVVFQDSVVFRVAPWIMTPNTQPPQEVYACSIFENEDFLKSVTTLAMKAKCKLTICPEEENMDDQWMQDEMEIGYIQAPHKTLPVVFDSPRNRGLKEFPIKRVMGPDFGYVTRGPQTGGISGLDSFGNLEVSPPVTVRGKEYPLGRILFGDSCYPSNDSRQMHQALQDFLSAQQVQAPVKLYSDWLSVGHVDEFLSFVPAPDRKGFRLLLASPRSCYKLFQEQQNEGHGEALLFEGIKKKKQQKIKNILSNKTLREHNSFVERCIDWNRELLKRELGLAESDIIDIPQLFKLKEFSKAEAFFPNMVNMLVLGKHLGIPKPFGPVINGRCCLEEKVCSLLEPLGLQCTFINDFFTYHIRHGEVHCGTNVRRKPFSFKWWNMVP

`O=C1NCC2=Nc3ccccc3NC(c3ccccc3)C12` (stereo unspecified) [MLS000106925] showed an IC50 of 100 µM.
